# Assay results: article PMC7565988, “Insight into the Anticancer Activity of Copper(II) 5-Methylenetrimethylammonium-Thiosemicarbazonates and Their Interaction with Organic Cation Transporters” (Biomolecules, 2020)
# Like-named read-outs stand apart in the source and are kept apart here.
# Key:
# [1] = Proton dissociation constants (pKa) of proligands by UV/Vis spectrophotometric titration; type: physicochemical; settings: for % HL at pH 7.4: fraction of proligand in neutral zwitterionic HL form at pH 7.4, computed with pKa; for pKa: proligand, phenolic OH, I = 0.1 M (KCl), t = 25 °C, water, read-out: pKa (H2L+)
# Protocol: (§1) An Agilent Carry 8454 diode array spectrophotometer was used to record the UV/Vis spectra in the interval 200–800 nm. The path length was 1 cm. Proton dissociation constants (pKa) of the TSC ligands, the overall stability constants of the copper(II) monoligand complexes (logβ) and the individual spectra of the species in the various protonation states and stoichiometry were calculated by the computer program PSEQUAD [44]. Spectrophotometric titrations were performed on samples containing the proligands at 50 μM concentration by a KOH solution in the presence of 0.1 M KCl at 25.0 ± 0.1 °C in the pH range from 2 to 11.5, and the metal-to-ligand ratio was 1:0, 1:1 and 1:2. An Orion 710A pH-meter equipped with a Metrohm combined electrode (type 6.0234.100) and a Metrohm 665 Dosimat burette were used for the titrations. […] The average water ionisation constant (pKw) is 13.76 ± 0.05 in water. Argon was also passed over the solutions during the titrations. Measurements were also carried out in the range of ca. 1.0–2.0 by preparing individual samples in which KCl was partially or completely replaced by HCl and pH values (between 1 and 2) were calculated from the strong acid content.
# [2] = Distribution coefficient (D7.4), shake-flask method, n-octanol/buffered aqueous solution pH 7.40; type: physicochemical; settings: n-octanol/PBS pH 7.4, 25 °C, read-out: logD7.4 (proligand)
# Protocol: Distribution coefficients (D7.4) values were determined by the traditional shake-flask method in n-octanol/buffered aqueous solution at pH 7.40 (20 mM phosphate buffer saline (PBS)) at 25.0 ± 0.2 °C as described previously.
# [3] = Solution stability of copper(II) complexes, UV/Vis spectrophotometric titration; type: physicochemical; settings: for logβ [Cu(HL)]2+ / logβ [CuL]+: copper(II) complex of the proligand; for logβ [Cu(HL)]2+ / logβ [CuL]+ / logβ [CuLH−1]: I = 0.1 M (KCl), t = 25 °C; for logKderived [CuLH−1]+: logβ [CuL]+ − pKa (H2L+); for logβ [CuLH−1]: mixed hydroxido [CuL(OH)] species; for pCu (−log[Cu(II)]): pH = 7.4, cCu(II) = 10 μM, cL = 10 μM
# Protocol: as §1
# [4] = 1H NMR titration, pKa of E/Z isomers; type: physicochemical; settings: 10% D2O/H2O, cL = 200 μM, I = 0.1 M (KCl), 25 °C
# Protocol: ^1H NMR spectroscopic studies were carried out on a Bruker Avance III HD instrument (Bruker BioSpin GmbH, Rheinstetten, Germany). All spectra were recorded with the WATERGATE water suppression pulse scheme using DSS internal standard.
# [5] = EPR spin trapping (DMPO/H2O2), ROS generation in cell-free media; settings: DMPO/H2O2 aqueous system
# Protocol: (§2) The generation of paramagnetic intermediates was monitored by cw-EPR spectroscopy using the EMXplus spectrometer and spin trapping technique. Deionised water was used for preparation of aqueous solutions. The spin trapping agent 5,5-dimethyl-1-pyrroline N-oxide (DMPO; Sigma-Aldrich) was distilled prior to the application. The EPR spectra were measured with following experimental parameters: X-band, room temperature, microwave frequency, 9.448 GHz; 100 kHz field modulation amplitude, 2 G; time constant, 10 ms; scan time, 21 s (three scans). Glutathione from Sigma-Aldrich; 6-hydroxy-2,5,7,8-tetramethylchroman-2-carboxylic acid (Trolox, 97%, Sigma-Aldrich); K2S2O8 (p.a. purity, Merck); 2,2′-azinobis [3-ethylbenzothiazoline-6-sulfonic acid] (ABTS; purum, >99%; Fluka) were used as received. Deionised high-purity grade H2O, with conductivity of […], was produced by using the TKA H2O purification system (Water Purification Systems GmbH, D-Niederelbert). For the ABTS decolourisation assay, the radical cations were pre-formed by the reaction of an aqueous solution of K2S2O8 (3.30 mg) in H2O (5 mL) with ABTS (17.2 mg). The resulting bluish-green radical cation (ABTS^•+) solution was stored overnight in the dark. […] The optical spectra were recorded from 1 to 40 min in 1 cm quartz UV cuvette after mixing the sample water/DMSO solution with ABTS^•+ in mixed solvent water/DMSO (20% (v/v)).
# [6] = ABTS decolourisation assay, Trolox equivalent antioxidant capacity; settings: water/DMSO (20% v/v), absorbance at 735 nm
# Protocol: as §2
# [7] = system: Colo 205 doxorubicin-sensitive colonic adenocarcinoma cells; assay: MTT cytotoxicity (24 h) / antiproliferation (72 h) assay; type: cell-based, human; settings: Homo sapiens, read-out: Colo205 IC50
# Protocol: Human doxorubicin-sensitive Colo 205 (ATCC-CCL-222) and multidrug resistant Colo 320 (overexpressing ABCB1 (MDR1)-LRP (ATCC-CCL-220.1)) colonic adenocarcinoma cell lines were purchased from LGC Promochem, Teddington, UK. The cells were cultured in RPMI 1640 medium supplemented with 10% heat-inactivated fetal bovine serum, 2 mM L-glutamine, 1 mM Na-pyruvate and 100 mM Hepes. The cell lines were incubated at 37 °C, in a 5% CO2, 95% air atmosphere. The semi-adherent human colon cancer cells were detached with Trypsin-Versene (EDTA) solution for 5 min at 37 °C.
# In the study non-cancerous human embryonic lung fibroblast MRC-5, human colonic adenocarcinoma cell line (doxorubicin-sensitive Colo 205, multidrug resistant Colo 320) and neuroblastoma cell line SH-SY5Y were used to determine the effect of compounds on cell growth. The effects of increasing concentrations of compounds on cell growth were tested in 96-well flat-bottomed microtiter plates. The compounds were diluted in a volume of 100 μL of medium.
# In case of the colonic adenocarcinoma cells, the two-fold serial dilutions of compounds were prepared in 100 μL of RPMI 1640, horizontally. The semi-adherent colonic adenocarcinoma cells were treated with Trypsin–Versene (EDTA) solution. The cells were adjusted to a density of 2 × 10^4 cells in 100 μL of RPMI 1640 medium, and were added to each well, with the exception of the medium control wells. The final volume of the wells containing compounds and cells was 200 μL.
# The culture plates were incubated at 37 °C for 24 h; at the end of the incubation period, 20 μL of MTT (thiazolyl blue tetrazolium bromide, Sigma) solution (from a stock solution of 5 mg/mL) were added to each well. After incubation at 37 °C for 4 h, 100 μL of sodium dodecyl sulfate (SDS) (Sigma) solution (10% in 0.01 M HCI) were added to each well and the plates were further incubated at 37 °C overnight. Cell growth was determined by measuring the optical density (OD) at 540/630 nm with Multiscan EX ELISA reader (Thermo Labsystems, Cheshire, WA, USA). […] Curves were fitted by GraphPad Prism software using the sigmoidal dose-response model (comparing variable and fixed slopes).
# The method is similar to the one described in the assay for cytotoxic effect. […] The culture plates were incubated at 37 °C for 72 h and after the incubation time, the plates were stained with MTT according to the previous experimental protocol described for the cytotoxicity assay.
% HL at pH 7.4 [1],pKa [1],logD [2],logβ [Cu(HL)]2+ [3],logβ [CuL]+ [3],logKderived [CuLH−1]+ [3],logβ [CuLH−1] [3],pCu (−log[Cu(II)]) [3],SMILES,pKa ([4]; read-out: pKa of major E isomer),pKa ([4]; read-out: pKa of minor Z isomer),radical formation [5],Trolox equivalent antioxidant capacity (TEAC) [6],"IC50 ([7]; COLO 205, 24 h exposure)","IC50 ([7]; COLO 205, 72 h exposure)"
55%,7.31 ± 0.01,0.06 ± 0.04,11.66 ± 0.03,7.67 ± 0.03,0.36,−1.65 ± 0.09,11.82,CCNC(=S)N/N=C/c1cc(C[N+](C)(C)C)ccc1O [[H2L^Et]Cl],–,–,–,–,> 100 µM,> 100 µM
70%,7.03 ± 0.01,0.68 ± 0.04,11.26 ± 0.02,8.55 ± 0.02,1.52,−1.31 ± 0.05,12.80,C[N+](C)(C)Cc1ccc(O)c(/C=N/NC(=S)Nc2ccccc2)c1 [[H2L^Ph]Cl],–,–,–,–,> 100 µM,> 100 µM
42%,7.54 ± 0.01,-0.39 ± 0.01,11.73 ± 0.02,7.76 ± 0.02,0.22,−1.48 ± 0.08,11.79,CNC(=S)N/N=C/c1cc(C[N+](C)(C)C)ccc1O [[H2L^Me]Cl],–,–,–,–,> 100 µM,> 100 µM

SMILES,% HL at pH 7.4 [1],pKa [1],logD [2],logβ [Cu(HL)]2+ [3],logβ [CuL]+ [3],logKderived [CuLH−1]+ [3],logβ [CuLH−1] [3],pCu (−log[Cu(II)]) [3],pKa ([4]; read-out: pKa of major E isomer),pKa ([4]; read-out: pKa of minor Z isomer),radical formation [5],Trolox equivalent antioxidant capacity (TEAC) [6],"IC50 ([7]; COLO 205, 24 h exposure)","IC50 ([7]; COLO 205, 72 h exposure)"
C[N+](C)(C)Cc1ccc(O)c(/C=N/NC(N)=S)c1 [[H2L^H]Cl],47%,7.46 ± 0.01,-0.84 ± 0.03,12.00 ± 0.01,8.14 ± 0.01,0.68,−1.66 ± 0.02,12.21,7.51,6.95,no radical formation,0.74,> 100 µM,> 100 µM
